Common to all, as to assay: growth of human tumour cells (NCI), 48 h
Assay [1] relates to COLO 205 colon.
In assay [2] the test system is KM12 colon.
For assay [3], the system named is NCI-H522 lung.
The test system of assay [4] is SK-MEL-2 melanoma.
Assay [5] deals with SK-MEL-5 melanoma.
The test system of assay [6] is SN12C renal.
Assay [7] concerns SNB-19 CNS.
For assay [8], the system named is SNB-75 CNS.
Assay [9] has as its system U251 CNS.
Assay [10] has as its system UACC-62 melanoma.
Assay [11] concerns ACHN renal.
Assay [12] has as its system HS 578T breast.
Assay [13] deals with MDA-MB-231 breast.
Assay [14] concerns TK-10 renal.

Among the data in PubChem BioAssay (NCI) are TGI and GI50 values, retold here.

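Where inhibition never reached the appropriate level, the endpoint shown equals the highest concentration tested. Otherwise, values were interpolated linearly from a five-concentration, 48-hour dose response in 96-well plates. GI50 marks 50% less growth. TGI denotes the concentration required for complete inhibition of growth.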

With `CN1CCN(P2(=S)Oc3ccc4ccccc4c3-c3c(ccc4ccccc34)O2)CC1`, the TGI in assay [1] was 28.8 µM; in assay [2] it was 51.1 µM; in assay [3], 64 µM; in assay [4], 42.4 µM; in assay [5] it was 53.2 µM; in assay [6], over 100 µM. In addition, the TGI in [7], in [8], in assay [9] and in [10] was over 100 µM throughout.
Take `O=C1N[C@@H]2C(=C[C@H](O)[C@@H](O)[C@H]2O)c2cc3c(c(O)c21)OCO3`: the TGI in [2] came out at 0.405 µM; in [4], 0.0499 µM; in assay [5] it was 0.0774 µM; in assay [6], 0.122 µM; in assay [7], 0.0665 µM; in assay [8], 0.0813 µM. The TGI was found to be 0.394 µM in assay [9] and 0.0587 µM in assay [10].
On to `COc1cc(Oc2nc3ccc(C(F)(F)F)cc3nc2-c2ccccc2)cc(OC)c1OC`, for which the TGI in [11] was 40.6 µM; in [1], over 100 µM; in assay [12], over 100 µM; in assay [2], over 100 µM; in assay [13], over 100 µM; in assay [3], over 100 µM. For the same compound, the TGI in assay [5] was 44.9 µM; in [6], over 100 µM; in assay [8], 23.5 µM; in [14], 69.2 µM; in assay [9] it was 28.5 µM; in assay [10], 31.7 µM.
Consider `CCOC(=O)c1c[nH]c2ccc3c(c2c1=O)S(=O)(=O)CC3` (tested in a mixture with another compound), for which the TGI in assay [1], in assay [2], in assay [3], in assay [4], in [5] and in [6] was over 100 µM each time. The TGI in [7], in [8], in assay [9] and in [10] was over 100 µM in each case.
Take `O=C1CCCC/C1=C\c1ccc(Cl)c(Cl)c1`: the TGI in [11] amounted to 33.5 µM; in assay [1] it was 96.6 µM; in assay [5] it was 32.5 µM; in assay [6], 31 µM; in assay [7], 74.3 µM; in assay [8] it was 46.8 µM. Further, the TGI in [14] is 34.4 µM; in assay [9] it was 30.6 µM; in assay [10], 63.6 µM.
On to `C=C(C)[C@@H]1CC[C@]2(C(=O)OC)CC[C@]3(C)[C@H](CC[C@@H]4[C@@]5(C)CC[C@H](O)C(C)(C)[C@@H]5CC[C@]43C)[C@@H]12`, for which the TGI is 32.9 µM in assay [11]; 56.5 µM in assay [12]; over 100 µM in assay [2]; over 100 µM in [13]; 40.6 µM in assay [3]; 41.3 µM in assay [5]. The TGI in assay [6] came to 35.1 µM; in assay [7], 39.5 µM; in assay [8], 59 µM; in assay [9], 35.8 µM.
As to `N#CCCC1(CCC#N)CCCCCCCCC(CCC#N)(CCC#N)C(O)C1O` (stereo not given), the TGI in [11] was over 100 µM; in assay [1], over 100 µM; in assay [12], 91.3 µM; in [2] it was over 100 µM; in assay [3], over 100 µM; in assay [4] it was over 100 µM. For the same compound, the TGI in [5], in [6], in [7], in assay [8], in assay [14] and in assay [9] was over 100 µM each time. This compound also came in with a TGI in [10] of over 100 µM.
Consider `CCCCCCCCCCCC[N+](CCCCCCCCCCCC)=C1SCCS1`, for which the TGI was found to be 25.1 µM in assay [11]; 20.4 µM in [1]; 19.5 µM in assay [3]; 23.2 µM in [4]; 18.5 µM in assay [5]; 14.6 µM in [6]. Besides, the TGI was 30 µM in assay [8], 28.8 µM in assay [14], 13.7 µM in assay [9] and 22.9 µM in assay [10].
With `C=CCOc1ccc(C2C(C(=O)OC)C(=O)CC(O)(c3ccccc3)C2C(=O)OC)cc1OC` (stereo not given), the TGI in assay [11] is over 100 µM; in [1] it was over 100 µM; in assay [2] it was over 100 µM; in [13], 38.2 µM; in assay [3] it was 50.5 µM; in [4], over 100 µM. Moreover, the TGI in assay [5] was over 100 µM; in [6] it was over 100 µM; in assay [7], over 100 µM; in assay [8], 98.3 µM; in assay [14] it was over 100 µM; in assay [9], over 100 µM. For the same compound, the TGI in [10] was over 100 µM.
With `CC(=O)O[C@H]1CC[C@@]2(C)C(=CC[C@@H]3[C@@H]2CC[C@]2(C)c4nc(Cl)ccc4C[C@@H]32)C1`, the TGI in assay [11] was over 100 µM; in assay [1], over 100 µM; in [2], over 100 µM; in assay [13], over 100 µM; in [3], over 100 µM; in [5], 96.6 µM. For the same compound, the TGI in [6] was over 100 µM; in [7] it was over 100 µM; in assay [8] it was 94 µM; in assay [14] it was over 100 µM; in [9] it was over 100 µM; in assay [10] it was 54.3 µM.
Take `O=C(O)c1ccccc1N=Nc1c(O)c(S(=O)(=O)O)cc2cc(S(=O)(=O)O)ccc12`: the TGI in assay [11], in assay [1], in assay [12], in [2], in assay [13] and in assay [4] was over 100 µM in each case. Moreover, the TGI in assay [5], in [6], in [7], in assay [8], in [14] and in [9] was over 100 µM in each case. In assay [10], this compound yielded a TGI of over 100 µM.
For the compound `COC(=O)C(=O)Cc1nc2ccccc2o1`, the TGI in assay [11], in [2], in assay [3], in [4], in [6] and in [7] was over 100 µM throughout. In addition, the TGI in [8], in [14], in assay [9] and in [10] was over 100 µM in each case.
Take `COc1cc(O)c2c(=O)c(OC)c(-c3ccc(OC)c(OC)c3)oc2c1`: the GI50 in [11] is over 100 µM; in assay [13], over 100 µM; in [5] it was 82 µM; in assay [7], over 100 µM; in assay [10], over 100 µM. The TGI is over 100 µM in [11]; over 100 µM in assay [1]; over 100 µM in [13]; 15 µM in [3]; over 100 µM in assay [5]; over 100 µM in [7]. The TGI in assay [14], in assay [9] and in assay [10] was over 100 µM throughout.
As to `CN(C)CCNC(=O)c1cccc2c(NC(CCC(N)=O)C(=O)O)c3ccccc3nc12` (stereo not given), the TGI in [11] was found to be 18.8 µM; in assay [1] it was 19.8 µM; in assay [2] it was 59.1 µM; in assay [13] it was 24.7 µM; in [3], 22.3 µM; in assay [4], 25.4 µM. For the same compound, the TGI in assay [5] was 31.4 µM; in assay [6], 81 µM; in assay [7], 15.5 µM; in assay [8] it was 30.8 µM; in assay [14] it was over 100 µM; in assay [9], over 100 µM. In assay [10], the TGI was over 100 µM.
In the case of `O=NN(CCF)C(=O)NC1CCSCC1`, the TGI in assay [1], in assay [2], in assay [3], in assay [4], in assay [5] and in assay [6] was over 100 µM in each case. The TGI in [7], in [8], in assay [9] and in assay [10] was over 100 µM each time.
`C=C1CC[C@@H](C)[C@](C)(CCc2ccoc2)C/C=C\C=C/1C(=O)O`: the TGI in assay [11] was over 100 µM; in assay [1], 49.4 µM; in assay [12], over 100 µM; in [2], over 100 µM; in assay [13], over 100 µM; in [4], 43.8 µM. The TGI in [5], in assay [6], in assay [7], in assay [8], in assay [14] and in [9] was over 100 µM each time. For the same compound, the TGI in assay [10] was over 100 µM.
On to `COc1cc(Nc2nc3cc(C(F)(F)F)ccc3n3cccc23)cc(OC)c1OC`, for which the TGI in [11], in [1], in assay [12], in [3], in assay [4] and in assay [5] was over 100 µM throughout. The TGI in assay [6], in assay [7], in [8], in assay [14], in [9] and in assay [10] was over 100 µM throughout.
As for `O=C1Cc2c([nH]c3ccc(C(=O)O)cc23)-c2ccccc2N1`, the TGI in [11], in [1], in [12], in [2], in assay [13] and in [4] was over 100 µM each time. Besides, the TGI in assay [6], in [7], in assay [14], in assay [9] and in assay [10] was over 100 µM in each case.
For the compound `COC(=O)Cc1c(-c2c(CC(=O)OC)c3ccccc3n2C2OC(COC(C)=O)C(OC(C)=O)C(OC(C)=O)C2OC(C)=O)[nH]c2ccccc12` (stereo not given), the TGI in assay [1], in [2], in assay [13], in assay [3], in assay [4] and in assay [5] was over 100 µM each time. Besides, the TGI in assay [6], in [7], in assay [14], in assay [9] and in assay [10] was over 100 µM each time.
`CO/N=C1/c2sccc2[C@H](NC(=O)C(Cc2ccccc2)NC(=O)OC(C)(C)C)[C@@H]1O` (stereo not given in full): the TGI in assay [1], in assay [12], in [13], in assay [4], in [5] and in [6] was over 100 µM each time. Further, the TGI in [7], in [8], in assay [14], in assay [9] and in assay [10] was over 100 µM each time.
On to `Cc1cc(NS(=O)(=O)c2ccc(NC(=O)c3cccc4c(Nc5ccc(S(N)(=O)=O)cc5)c5ccccc5nc34)cc2)no1`, for which the TGI in assay [11], in [2], in assay [3], in assay [4], in assay [6] and in [7] was over 100 µM each time. Also, the TGI in [8], in [14], in assay [9] and in assay [10] was over 100 µM in each case.
With `CCOC(=O)Cn1nnc2ccc(Nc3nc4ccccc4nc3-c3ccccc3)cc21`, the TGI in [11], in assay [1], in [12], in assay [2], in assay [3] and in assay [4] was over 100 µM in each case. Also, the TGI in assay [5] is over 100 µM; in [6] it was over 100 µM; in [7] it was over 100 µM; in [8], 99.1 µM; in assay [14] it was 62.5 µM; in assay [9], over 100 µM. The compound also came in with a TGI in assay [10] of over 100 µM.
As to `COc1cccc(C2c3cc4c(cc3OC3COC(=O)C32)OCO4)c1OC` (stereo not given), the TGI in assay [11], in [1], in [12], in assay [2], in [13] and in assay [4] was over 100 µM throughout. In addition, the TGI in assay [5], in assay [6], in [7], in assay [8], in [14] and in assay [10] was over 100 µM each time.
